According to patent US10544440B2, “Multiple protease deficient filamentous fungal cells and methods of use thereof” (Glykos Finland OY, priority 2013, dated 2020):
Square brackets hold non-standard residues; d marks the D form. Peptide text beside a SMILES is read from it. * marks the point of attachment. Sta = CC(C)C[C@H](N)[C@@H](O)CC(=O)O; Isovaleryl = CC(C)CC(=O)*

Columns and labels:
M1200 strain = assay: Inhibitor studies on FGF21 production strain M1200 in 24 well culture; format: cell-based, Trichoderma reesei; conditions: M1200 24 well culture, inhibitors 10 μM, SBTI 0.1 mg/ml; for FGF21 expression, lower band / FGF21 expression, total product / FGF21 expression, upper band: day 4 immunoblot
Excerpt: Chymostatin and SBTI are known to inhibit SLP2 and SLP7 subtilisin proteases that are still expressed in the M1200 strain. Pepstatin inhibits aspartic proteases such as PEP8, PEP11, PEP12 which are known to be secreted into the supernatant. 1,10-phenathroline targets mainly zinc metalloproteases which are secreted by Trichoderma. The M1200 strain was cultivated in 24 well format in TrMM with 10 g/L yeast extract, 20 g/L cellobiose, 10 g/L sorbose, PIPPS buffered at pH 4.5. Chymostatin, phenathroline, and pepstatin were used at a final concentration of 10 μM and SBTI was used at 0.1 mg/ml. Each treatment was done in duplicate wells and the untreated control was cultured in 4 wells.
The cultures were started by adding 1×10^7 spores into 50 ml of culture medium and adding 3 ml of culture medium plus spores to each well (6×10^5 spores/well). 100 μl of each culture supernatant was collected on days 4, 5, and 6. The mycelium was spun down to remove only the supernatant. Orange LSB was added and the samples were heated for 5 minutes. 2 μl of the supernatant+LSB was loaded per well into 4-20% Criterion TGX gel. The gel was run and proteins were transferred to nitrocellulose membranes.
The expressed FGF21 was detected by immunoblotting as above. A commercially purchased N-terminal antibody rabbit polyclonal from Abcam (#ab66564) and C-terminal rabbit polyclonal antibody from Abcam (#ab137715) were used in some cases.

M393 strain = assay: FGF21 production by M393 in 24 well cultures treated with protease inhibitors; format: cell-based, Trichoderma reesei; conditions: M393 24 well culture, 10 μM pepstatin A added, day 6
Procedure: The M393 strain was grown with and without protease inhibitors pepstatin A, chymostatin, or soybean trypsin inhibitor. Independent wells were chosen for control wells where no inhibitors were added. This strain was grown in 3 ml of TrMM with diammonium citrate without ammonium sulfate, 100 mM PIPPS, 20 g/L spent grain extract, 40 g/L lactose adjusted to pH 4.5. The 24 well plates were shaken at 800 rpm at 85% humidity. The plate was covered with an air permeable membrane and the cultures were grown for 6 days.
Inhibitors were added first on day 3 and then added daily until day 6. 200 μl samples were taken from the culture wells beginning on day 3. The mycelium was spun down for 5 minutes at 13 k and the supernatant collected. From the culture supernatant 5 μl plus LSB was loaded in a 4-20% SDS PAGE gel and immunoblotting made on nitrocellulose with rabbit anti-FGF21 (2 μg/ml) and goat anti-rabbit IgG AP conjugated secondary antibody diluted 1:10,000. FGF21 standard were included on the blot for quantification.

Row | Molecule | FGF21 expression, lower band (M1200 strain) [Fluorescent units] | FGF21 expression, total product (M1200 strain) [Fluorescent units] | FGF21 expression, upper band (M1200 strain) [Fluorescent units] | effect of inhibitor treatment on FGF21 forms (immunoblot) (M1200 strain) | FGF21 production (M393 strain)
1 | CC(C)CC(=O)N[C@H](C(=O)N[C@H](C(=O)N[C@@H](CC(C)C)[C@@H](O)CC(=O)N[C@@H](C)C(=O)N[C@@H](CC(C)C)[C@@H](O)CC(=O)O)C(C)C)C(C)C [pepstatin, pepstatin A] (Isovaleryl-VV[Sta]A[Sta]-OH) | 51050 | 52660 | 1610 | only improved the expression level of the 10 kD form | up to 160 mg/L
2 | c1cnc2c(c1)ccc1cccnc12 [1,10-phenathroline] | 68800 | 69574 | 774 | only improved the expression level of the 10 kD form | –
3 | CC(C)C[C@H](NC(=O)[C@@H](NC(=O)N[C@@H](Cc1ccccc1)C(=O)O)[C@@H]1CCN=C(N)N1)C(=O)N[C@H](C=O)Cc1ccccc1 [chymostatin] | 19500 | 53700 | 34200 | improved the stability of the protein allowing a 17 kD major product | –
4 | SBTI: soybean trypsin inhibitor, protease inhibitor (protein, UniProt P01070 25-205, looked up) Trypsin inhibitor A: DFVLDNEGNPLENGGTYYILSDITAFGGIRAAPTGNERCPLTVVQSRNELDKGIGTIISSPYRIRFIAEGHPLSLKFDSFAVIMLCVGIPTEWSVVEDLPEGPAVKIGENKDAMDGWFRLERVSDDEFNNYKLVFCPQQAEDDKCGDIGISIDHDDGTRRLVVSKNKPLVVQFQKLDKESL | 37050 | 50850 | 13800 | only improved the expression level of the 10 kD form | –
